Laboratory results from PubChem BioAssay (NCI).
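Test compounds were applied to cells in 96-well plates for 48 hours at 5 doses. The concentration for full growth arrest is given as TGI.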

Experiments:
Experiment in all cases: NCI tumour cell line growth inhibition, 48 h
[1] = test system: A549 NSCLC
[2] = test system: ACHN renal
[3] = test system: COLO 205 colon
[4] = test system: HCT-116 colon
[5] = test system: IGROV1 ovarian
[6] = test system: K-562 leukemia
[7] = test system: MALME-3M melanoma
[8] = test system: MOLT-4 leukemia
[9] = test system: NCI-H23 lung
[10] = test system: NCI-H460 lung
[11] = test system: OVCAR-3 ovarian
[12] = test system: U251 CNS
[13] = test system: UACC-257 melanoma
[14] = test system: UACC-62 melanoma
[15] = test system: HT29 colon
[16] = test system: MDA-N
[17] = test system: HS 578T breast

SMILES	TGI [1] [µM]	TGI [2] [µM]	TGI [3] [µM]	TGI [4] [µM]	TGI [5] [µM]	TGI [6] [µM]	TGI [7] [µM]	TGI [8] [µM]	TGI [9] [µM]	TGI [10] [µM]	TGI [11] [µM]	TGI [12] [µM]	TGI [13] [µM]	TGI [14] [µM]	TGI [15] [µM]	TGI [16] [µM]	TGI [17] [µM]
Cc1ccc(S(=O)(=O)c2c(N)c3nccn3c3nc4ccccc4nc23)cc1	> 100	> 100	> 100	> 100	> 100	> 100	> 100	> 100	> 100	> 100	> 100	> 100	> 100	> 100			
O=C1NC2OCC(O)C(O1)C2O (configuration not stated)		> 100	> 100		> 100	> 100	> 100	> 100	> 100	> 100	> 100	> 100	> 100	> 100	> 100		
CC1=C2C(=O)C3[C@@H](CCC4=CC(=O)CC[C@@]43C)C2CC[C@]12O[C@@H]1C[C@H](C)CN[C@H]1[C@H]2C (some centres not stated)	> 100	> 100	> 100	> 100	> 100	36.4		41.4	> 100	> 100	> 100	51.5	> 100	61	> 100		
COc1cc2c(c(N)c1OC)C(=O)/C(=C/c1cc(C)c(O)c(C)c1)C2	> 100	> 100	> 52.2	2.24	> 100			> 100	> 46.6	> 57.8		> 45.5	> 100	> 100	> 100		
O=C(O)Cn1nnc2c(=O)[nH][nH]c(=O)c21	> 100	> 100	> 100	> 100		> 10	> 100	> 10	> 100	> 100	> 100	> 100	> 100		> 100	> 100	
CCN(CC)CCCC(C)NC(=O)c1cc(-c2nccn2C)nc2ccc(C)cc12 (configuration not stated)	> 100	> 100	> 100	> 100	> 100		> 100		> 100	> 100		> 100	> 100	> 100	> 100	> 100	
Cc1cccc2nc3n(c12)C(=O)c1ccccc1-3	> 100	> 100	> 100	> 100	> 100	> 100	> 100	> 100	> 100	> 100	> 100	> 100	> 100	> 100	> 100	> 100	
Cc1ccc(S(=O)(=O)NC(=O)C2(Br)S(=O)(=O)OCCOS2(=O)=O)cc1	> 100	> 100	> 100	> 100	> 100	> 100	> 100	> 100	> 100	> 100	> 100	> 100	> 100	> 100	> 100		
O/N=C(\C=N\O)c1ccc2c(c1)Sc1ccccc1O2	> 100	42.8	54.3	45.7		85.4	72.5	32.7	60.3	60.5	48.8	98.7	42	37.7	49.7		> 100
Cc1c(/C=N/NC(=O)c2ccccc2)c(=O)n(-c2ccccc2)n1C	> 100	> 100	> 100	> 100	> 100	> 100	> 100	> 100	> 100	> 100	> 100	> 100	> 100	> 100	> 100		
Cc1nc2c(=O)[nH]c3ccccc3c2o1	> 100	> 100	> 100	> 100	> 100		> 100		> 100	> 100	> 100	> 100	> 100	> 100	> 100	> 100	> 100
O=C(Cn1c(C(=O)/C=C/c2ccco2)nc2ccccc21)c1ccc(Cl)cc1	> 100	> 100	49.2	39.9	57.1	51	40.2		28.1	27.2	> 100	> 100	51.9	> 100	92.6	50.2	24.6
CC(=O)O[C@H]1C(=O)[C@@]2(C)[C@H]([C@H](OC(=O)c3ccccc3)[C@]3(O)C[C@H](OC(=O)[C@H](O)[C@@H](NC(=O)c4ccccc4)C4CCCCC4)C(C)=C1C3(C)C)[C@]1(OC(C)=O)CO[C@@H]1C[C@@H]2O	> 100	> 72.8	< 0.01	> 44.9	> 61.3	> 51.9	95	> 51.6	> 100	15.3	< 0.01	> 43		52.2	17.5		< 0.01
O=c1c2c(sc3ccccc13)NCN(CCc1ccccc1)C2	> 100	> 100	37	> 100	> 100	40.8	> 100	80.2	> 100	> 100	> 100	> 100	> 100	> 100	53.8	59.7	
Cc1ccc(C2(C)NC(=S)N(NC(N)=S)C2=S)cc1 (configuration not stated)	> 100	> 100	> 100	> 100	> 100	> 100	> 100	> 100	> 100	> 100	> 100	> 100	> 100	> 100			
C=C1C(=O)OC2C[C@H](C)C3CC(=O)C(C)=C3CC12 (some centres not stated)	69.1	25.5	26.5	20.4	31.4	23.1	25.3	23.3	28.7	51.6	26.2	18.1	28.6	25.9	31		
